# Measured values: PubChem BioAssay (NCI)
#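 How tested: cells in 96-well plates exposed to compound for 48 hours at five concentrations. Definition used: TGI = concentration required for complete inhibition of growth.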
# How the values were obtained:
# Assay in all cases: NCI anticancer screen, dose series, 48 h
# SF-539 CNS = tested on: SF-539 CNS
# SR leukemia = tested on: SR leukemia
# NCI-H460 lung = tested on: NCI-H460 lung
# SK-OV-3 ovarian = tested on: SK-OV-3 ovarian
# MDA-MB-231 breast = tested on: MDA-MB-231 breast
# HCT-116 colon = tested on: HCT-116 colon
# HT29 colon = tested on: HT29 colon
# PC-3 prostate = tested on: PC-3 prostate
# CAKI-1 renal = tested on: CAKI-1 renal
# ACHN renal = tested on: ACHN renal
# T-47D breast = tested on: T-47D breast
# A498 renal = tested on: A498 renal
# SF-268 CNS = tested on: SF-268 CNS
# NCI/ADR-RES ovarian = tested on: NCI/ADR-RES ovarian
# HCC-2998 colon = tested on: HCC-2998 colon
# NCI-H522 lung = tested on: NCI-H522 lung
# HS 578T breast = tested on: HS 578T breast
# SW-620 colon = tested on: SW-620 colon
# TK-10 renal = tested on: TK-10 renal
# BT-549 breast = tested on: BT-549 breast
# HL-60(TB) leukemia = tested on: HL-60(TB) leukemia
# MCF7 breast = tested on: MCF7 breast
# HCT-15 colon = tested on: HCT-15 colon
# M14 melanoma = tested on: M14 melanoma
# CCRF-CEM leukemia = tested on: CCRF-CEM leukemia
# SK-MEL-5 melanoma = tested on: SK-MEL-5 melanoma
# U251 CNS = tested on: U251 CNS
# MDA-N = tested on: MDA-N
# A549 NSCLC = tested on: A549 NSCLC
# SNB-19 CNS = tested on: SNB-19 CNS
# SF-295 CNS = tested on: SF-295 CNS
# 786-0 renal = tested on: 786-0 renal
# SK-MEL-2 melanoma = tested on: SK-MEL-2 melanoma
# NCI-H226 lung = tested on: NCI-H226 lung
# UACC-62 melanoma = tested on: UACC-62 melanoma
# COLO 205 colon = tested on: COLO 205 colon
# IGROV1 ovarian = tested on: IGROV1 ovarian
# MALME-3M melanoma = tested on: MALME-3M melanoma
# LOX IMVI melanoma = tested on: LOX IMVI melanoma
# MOLT-4 leukemia = tested on: MOLT-4 leukemia
# RXF 393 renal = tested on: RXF 393 renal
# MDA-MB-435 = tested on: MDA-MB-435
# OVCAR-8 ovarian = tested on: OVCAR-8 ovarian
# OVCAR-5 ovarian = tested on: OVCAR-5 ovarian
# SN12C renal = tested on: SN12C renal
# SK-MEL-28 melanoma = tested on: SK-MEL-28 melanoma
# K-562 leukemia = tested on: K-562 leukemia
# HOP-62 NSCLC = tested on: HOP-62 NSCLC
# KM12 colon = tested on: KM12 colon
# OVCAR-4 ovarian = tested on: OVCAR-4 ovarian
# RPMI-8226 leukemia = tested on: RPMI-8226 leukemia
# DU-145 prostate = tested on: DU-145 prostate
# OVCAR-3 ovarian = tested on: OVCAR-3 ovarian
# EKVX NSCLC = tested on: EKVX NSCLC
# UACC-257 melanoma = tested on: UACC-257 melanoma
# NCI-H23 lung = tested on: NCI-H23 lung
structure (smiles),measurement,setting,value
Clc1ccc(Cl)c(NNc2cc(Cl)ccc2Cl)c1,TGI,SF-539 CNS,> 10 µM
same,TGI,SR leukemia,> 10 µM
same,TGI,NCI-H460 lung,> 10 µM
same,TGI,SK-OV-3 ovarian,> 10 µM
same,TGI,MDA-MB-231 breast,> 10 µM
same,TGI,HCT-116 colon,> 10 µM
same,TGI,HT29 colon,> 10 µM
same,TGI,PC-3 prostate,> 10 µM
same,TGI,CAKI-1 renal,> 10 µM
same,TGI,ACHN renal,7.43 µM
same,TGI,T-47D breast,> 10 µM
same,TGI,A498 renal,> 10 µM
same,TGI,SF-268 CNS,> 10 µM
same,TGI,NCI/ADR-RES ovarian,9 µM
same,TGI,HCC-2998 colon,> 10 µM
same,TGI,NCI-H522 lung,> 10 µM
same,TGI,HS 578T breast,> 10 µM
same,TGI,SW-620 colon,> 10 µM
same,TGI,TK-10 renal,> 10 µM
same,TGI,BT-549 breast,> 10 µM
same,TGI,HL-60(TB) leukemia,> 10 µM
same,TGI,MCF7 breast,> 10 µM
same,TGI,HCT-15 colon,> 10 µM
same,TGI,M14 melanoma,> 10 µM
same,TGI,CCRF-CEM leukemia,> 10 µM
same,TGI,SK-MEL-5 melanoma,6.35 µM
same,TGI,U251 CNS,> 10 µM
same,TGI,MDA-N,> 10 µM
same,TGI,A549 NSCLC,> 10 µM
same,TGI,SNB-19 CNS,> 10 µM
same,TGI,SF-295 CNS,> 10 µM
same,TGI,786-0 renal,> 10 µM
same,TGI,SK-MEL-2 melanoma,8.6 µM
same,TGI,NCI-H226 lung,> 10 µM
same,TGI,UACC-62 melanoma,> 10 µM
same,TGI,COLO 205 colon,> 10 µM
same,TGI,IGROV1 ovarian,> 10 µM
same,TGI,MALME-3M melanoma,9.7 µM
same,TGI,LOX IMVI melanoma,> 10 µM
same,TGI,MOLT-4 leukemia,> 10 µM
same,TGI,RXF 393 renal,> 10 µM
same,TGI,MDA-MB-435,> 10 µM
same,TGI,OVCAR-8 ovarian,> 10 µM
same,TGI,OVCAR-5 ovarian,> 10 µM
same,TGI,SN12C renal,> 10 µM
same,TGI,SK-MEL-28 melanoma,> 10 µM
same,TGI,K-562 leukemia,> 10 µM
same,TGI,HOP-62 NSCLC,> 10 µM
same,TGI,KM12 colon,> 10 µM
same,TGI,OVCAR-4 ovarian,> 10 µM
same,TGI,RPMI-8226 leukemia,> 10 µM
same,TGI,DU-145 prostate,> 10 µM
same,TGI,OVCAR-3 ovarian,7.81 µM
same,TGI,EKVX NSCLC,> 10 µM
same,TGI,UACC-257 melanoma,> 10 µM
same,TGI,NCI-H23 lung,7.18 µM
